Assay results reported in ChEMBL document CHEMBL2029347, “Identification of blapsins A and B as potent small-molecule 14-3-3 inhibitors from the insect Blaps japanensis” (Bioorg Med Chem Lett, 2012).

Columns and labels:
[1] = molecular target: T1, 14-3-3 protein gamma (Homo sapiens, UniProt P61981); test: Inhibition of recombinant GST-tagged 14-3-3gamma interaction with TMR-pS259-Raf peptide after 30 mins by fluorescence polarization assay
T1 sequence (P61981 whole entry): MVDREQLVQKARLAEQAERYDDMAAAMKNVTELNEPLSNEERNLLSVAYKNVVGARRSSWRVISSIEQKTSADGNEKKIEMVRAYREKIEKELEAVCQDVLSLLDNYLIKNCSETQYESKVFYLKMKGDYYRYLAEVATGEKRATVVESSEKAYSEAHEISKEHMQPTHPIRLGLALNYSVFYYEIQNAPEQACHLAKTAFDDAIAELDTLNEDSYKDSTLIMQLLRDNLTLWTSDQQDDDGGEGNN

[2] = molecular target: T1, 14-3-3 protein gamma; test: Inhibition of recombinant GST-tagged 14-3-3gamma interaction with PRAS40 in Cos7 cell lysate by ELISA; assay type: cell-free

Row | Structure (SMILES) | IC50 [1] [nM] | IC50 [2] [µM]
1 | Oc1ccc(C2OCCc3cc(O)c(O)cc32)cc1O (racemic) [BLAPSIN B] | 2500 | 10
2 | O=C(Cc1ccc(O)c(O)c1)OCCc1ccc(O)c(O)c1 [BLAPSIN A] | 2000 | 9.2
